The term Kd denotes the free concentration of one partner at which half of the binding sites on the other are occupied at equilibrium, for simple one-to-one binding.

This assay addresses T1, tyrosinase (mushroom tyrosinase, polyphenoloxidase EC 1.14.18.1).
T1 construct: gene PPO3; native enzyme from mushroom caps; ammonium sulphate, DEAE-cellulose, Superdex 200; single 63 kDa band on SDS-PAGE; isoenzyme not determined
In words: isothermal titration calorimetry. Further details: species or system Agaricus bisporus. Particulars: 25 °C, pH 6.8, 25 mM phosphate; step 1 (strongest) of three-step sequential binding model. An excerpt:
isothermal titration calorimetry on tyrosinase (mushroom tyrosinase, polyphenoloxidase EC 1.14.18.1)
A general note: ITC needs no label: the signal is the heat of the interaction.

In turn, `C=C1C2CCC(C2)C1(C)CC/C=C(/C)CO` (stereo not shown) [santalol] had an equilibrium dissociation constant (Kd) of 1270 nM.

Source of the values: paper PMC9786741, “Elucidating the Role of Santalol as a Potent Inhibitor of Tyrosinase: In Vitro and In Silico Approaches” (Molecules, 2022).
